# Assay results as given in patent US20120138147A1, “PHOTOELECTRIC CONVERSION ELEMENT, MANUFACTURING METHOD OF THE SAME AND ELECTRONIC EQUIPMENT” (Sony Corporation, priority 2010, published 2012).
# Experiment: physchem
# Excerpt: Here, Ka is the dissociation equilibrium constant of a conjugate acid in water. This additive is typically a pyridine-based additive or an additive having a heterocycle. […] However, the pyridine-based additives are not limited thereto. On the other hand, among specific examples of additives having a heterocycle are N-methylimidazole(MIm), 2,4-lutidine(24-Lu), 2,5-lutidine(25-Lu), 2,6-lutidine(26-Lu), 3,4-lutidine(34-Lu) and 3,5-lutidine(35-Lu). However, the additives having a heterocycle are not limited thereto.
Molecule,pKa (water),pKa
COc1ccccn1 [2-MeO—Py],3.28,–
Brc1cccnc1 [3-Br—Py],2.84,–
COC(=O)c1cccnc1 [3-COOMe—Py],3.13,–
COc1cccnc1 [3-MeO—Py],4.88,–
N#Cc1ccncc1 [4-CN—Py],1.9,–
"CCc1ccncc1 [4-Et—Py, 4-ethylpyridine]",–,6.04
CNc1ccncc1 [4-MeNH—Py],12.5,–
Nc1ccncc1 [4-NH2—Py],9.17,–
c1ccc2c(c1)ccc1ncccc12 [56-benzoquinoline],5.15,–
c1ccc2nc3ccccc3cc2c1 [acridine],–,5.6
c1ccnnc1 [pyridazine],–,2.1
c1ccc2ncccc2c1 [quinoline],–,4.97

# Now from value to molecule:
pKa (water),pKa,Molecule
6.62,6.62,"COc1ccncc1 [4-MeO—py, 4-methoxypyridine]"
6.03,–,Cc1ccncc1 [4-pic]
–,6.72,"Cc1ccnc(C)c1 [24-Lu, 2,4-lutidine]"
–,6.47,"Cc1ccc(C)nc1 [25-Lu, 2,5-lutidine]"
6.77,6.77,"Cc1cccc(C)n1 [26-Lu, 2,6-lutidine]"
–,6.52,"Cc1ccncc1C [34-Lu, 3,4-lutidine]"
–,6.14,"Cc1cncc(C)c1 [35-Lu, 3,5-lutidine]"
–,7.3,"Cn1ccnc1 [Mlm, N-methylimidazole]"
5.6,–,Cn1cnc2ccccc21 [NMB]
–,5.99,"CC(C)(C)c1ccncc1 [TBP, 4-tert-butylpyridine]"
4.42,–,c1ccc(-c2ccccn2)nc1 [bpy]
–,5.38,c1ccc2cnccc2c1 [isoquinoline]
–,0.6,c1cnccn1 [pyrazine]
2.1,–,Me-pyrazole
